Source: patent US6943183B2 (Pfizer Inc, priority 2000, dated 2005)
Counter-ions that a name gives are not always drawn.

Target: T1, SF9 affinity purified rat FPT (Rattus norvegicus, UniProt Q02293+Q04631)
T1 construct: made in house; host or cells: Sf9 insect cells
Assay: PFT (FPT) inhibitory activity assay, radiolabeled farnesyl pyrophosphate and biotinyl peptide, streptavidin beads
Format: biochemical
Conditions: HEPES buffer pH 7.4, 30° C., 30 minutes; read-out: FTase IC50
Outline: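 Rat FPT expressed in SF9 cells was incubated 30 minutes at 30° C. with compound (in 10% DMSO), radiolabeled farnesyl pyrophosphate and biotinylated peptide. Buffer: HEPES pH 7.4, ZnCl2 20 μM, MgCl2 and DTT 5 mM each, 0.1% PEG 8000, 5 mM potassium phosphate (also run without phosphate). Product captured on streptavidin beads in magnesium acetate/H3PO4 stop buffer.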

| IC50 [nM] | Structure (SMILES) |
| --- | --- |
| 5 | CCCc1c(O[C@H](Cn2ccnc2)c2ccccc2)ccc2c1CCCC2=O [Compound 53] |
| 15 | C=CCc1c(O[C@H](Cn2ccnc2)c2ccccc2)ccc2c1CCC2=O [Compound 56] |
| 0.2 | C[C@H](O)CNC(=O)c1cccc(SCc2c(O[C@H](Cn3ccnc3)c3ccccc3)ccc3c2CCCC3=O)c1 [Compound 197, N-[(2S)-2-Hydroxypropyl]-3-{[(2-{[(1S)-2-(1H-imidazol-1-yl)-1-phenylethyl]oxy}-5-oxo-5,6,7,8-tetrahydro-1-naphthalenyl)methyl]sulfanyl}benzamide] |
| 4 | N#Cc1ccc(Cc2c(O[C@H](Cn3ccnc3)c3ccccc3)ccc3c2CCCC3=O)cc1 [Compound 33, 4-{[2-((1S)-2-Imidazolyl-1-phenylethoxy)-5-oxo-6,7,8-trihydronaphthyl]methyl}benzenecarbonitrile] |
| 14 | CC(C)(C)OC(=O)NCc1c(O[C@H](Cn2ccnc2)c2ccccc2)ccc2c1CCCC2=O [Compound 41, [2-((S)-2-Imidazol-1-yl-1-phenyl-ethoxy)-5-oxo-5,6,7,8-tetrahydro-naphthalen-1-ylmethyl]-carbamic acid tert-butyl ester] |
| 0.24 | C[C@H](O)CNC(=O)c1cccc(S(=O)(=O)Cc2c(O[C@H](Cn3ccnc3)c3ccccc3)ccc3c2CCCC3=O)c1 [Compound 200, N-[(2S)-2-Hydroxypropyl]-3-{[(2-{[(1S)-2-(1H-imidazol-1-yl)-1-phenylethyl]oxy}-5-oxo-5,6,7,8-tetrahydro-1-naphthalenyl)methyl]sulfonyl}benzamide] |
| 31 | O=C1CCCc2c1ccc(O[C@H](Cn1ccnc1)c1ccccc1)c2NS(=O)(=O)c1ccccc1 [Compound 38, N-[2-((S)-2-Imidazol-1-yl-1-phenyl-ethoxy)-5-oxo-5,6,7,8-tetrahydro-naphthalen-1-yl]-benzenesulfonamide] |
| 10 | CNC(=O)c1ccc(S(=O)(=O)Cc2c(O[C@H](Cn3ccnc3)c3ccccc3)ccc3c2CCCC3=O)cc1 [Compound 189, 4-{[(2-{[(1S)-2-(1H-2-Imidazol-1-yl)-1-phenylethyl]oxy}-5-oxo-5,6,7,8-tetrahydro-1-naphthalenyl)methyl]sulfonyl}-N-methylbenzamide] |
| 2 | O=C1CCCc2c1ccc(O[C@H](Cn1ccnc1)c1ccccc1)c2CCc1ccncc1 [Compound 26, 6-((1S)-2-Imidazolyl-1-phenylethoxy)-5-(2-(4-pyridyl)ethyl)-2,3,4-trihydronaphthalen-1-one] |
| 1.5 | O=C1CCCc2c1ccc(O[C@H](Cn1ccnc1)c1ccccc1)c2CNS(=O)(=O)c1ccccc1 [Compound 42, N-[2-((S)-2-Imidazol-1-y-1-phenyl-71-ethoxy)-5-oxo-5,6,7,8-tetrahydro-naphthalen-1-ylmethyl]-benzenesulfonamide] |
| 1.1 | COc1ccc(S(=O)(=O)NCc2c(O[C@H](Cn3ccnc3)c3ccccc3)ccc3c2CCCC3=O)cc1 [Compound 42a, N-[2-((S)-2-Imidazol-1-yl-1-phenyl-ethoxy)-5-oxo-5,6,7,8-tetrahydro-naphthalen-1-ylmethyl]-4-methoxy-benzenesulfonamide] |
| 0.37 | C#CCNC(=O)c1ccc(S(=O)(=O)Cc2c(O[C@H](Cn3ccnc3)c3ccccc3)ccc3c2CCCC3=O)cc1 [Compound 214, 4-{[(2-{[(1S)-2-(1H-Imidazol-1-yl)-1-phenylethyl]oxy}-5-oxo-5,6,7,8-tetrahydro-1-naphthalenyl)methyl]sulfonyl}-N-(2-propynyl)benzamide] |
| 25 | O=C(O)CCc1c(O[C@H](Cn2ccnc2)c2ccccc2)ccc2c1CCCC2=O [Compound 32, 3-[2-((1S)-2-Imidazolyl-1-phenylethoxy)-5-oxo-6,7,8-trihydronaphthyl]propanoic acid] |
| 0.2 | CC(O)CNC(=O)c1ccccc1S(=O)(=O)Cc1c(O[C@H](Cn2ccnc2)c2ccccc2)ccc2c1CCCC2=O (stereo partly drawn) [Compound 255] |
| 0.8 | C=CCNC(=O)c1ccc(S(=O)(=O)Cc2c(O[C@H](Cn3ccnc3)c3ccccc3)ccc3c2CCCC3=O)cc1 [Compound 206, N-Allyl-4-{[(2-{[(1S)-2-(1H-imidazol-1-yl)-1-phenylethyl]oxy}-5-oxo-5,6,7,8-tetrahydro-1-naphthalenyl)methyl]sulfonyl}benzamide] |
| 0.2 | C#CCNC(=O)c1cccc(SCc2c(O[C@H](Cn3ccnc3)c3ccccc3)ccc3c2CCCC3=O)c1 [Compound 213, 3-{[(2-{[(1S)-2-(1H-Imidazol-1-yl)-1-phenylethyl]oxy}-5-oxo-5,6,7,8-tetrahydro-1-naphthalenyl)methyl]sulfanyl}-N-(2-propynyl)benzamide] |

| IC50 [nM] | Structure (SMILES) |
| --- | --- |
| 3 | O=C1CCCc2c1ccc(O[C@H](Cn1ccnc1)c1ccccc1)c2COc1ccc2c(c1)OCO2 [Compound 93, 6-((1S)-2-Imidazolyl-1-phenylethoxy)-5-(2H-benzo[d]1,3-dioxolan-5-yloxymethyl)-2,3,4-trihydronaphthalen-1-one] |
| 1 | O=C1CCCc2c1ccc(O[C@H](Cn1ccnc1)c1ccccc1)c2COc1cccc2[nH]ccc12 [Compound 76, 6-((1S)-2-Imidazolyl-1-phenylethoxy)-5-(indol-4-yloxymethyl)-2,3,4-trihydronaphthalen-1-one] |
| 5 | O=C(O)c1cccc(S(=O)(=O)Cc2c(O[C@H](Cn3ccnc3)c3ccccc3)ccc3c2CCCC3=O)c1 [Compound 161, 3-{[(2-{[(1S)-2-(1H-Imidazol-1-yl)-1-phenylethyl]oxy}-5-oxo-5,6,7,8-tetrahydro-1-naphthalenyl)methyl]sulfonyl}benzoic Acid] |
| 9 | O=C1CCCc2c1ccc(O[C@H](Cn1ccnc1)c1ccccc1)c2NC(=O)c1ncoc1-c1ccc(Cl)cc1 [Compound 40d, 5-(4-Chloro-phenyl)-oxazole-4-carboxylic acid [2-((S)-2-imidazol-1-yl-1-phenyl-ethoxy)-5-oxo-5,6,7,8-tetrahydro-naphthalen-1-yl]-amide] |
| 4 | O=C1CCCc2c1ccc(O[C@H](Cn1ccnc1)c1ccccc1)c2CSc1ccccn1 [Compound 9, 6-((1S)-2-Imidazolyl-1-phenylethoxy)-5-(2-pyridylthiomethyl)-2,3,4-trihydronaphthalen-1-one] |
| 0.2 | C[C@@H](O)CNC(=O)c1ccccc1SCc1c(O[C@H](Cn2ccnc2)c2ccccc2)ccc2c1CCCC2=O [Compound 194, N-[(2R)-2-Hydroxypropyl]-2-{[(2-{[(1S)-2-(1H-imidazol-1-yl)-1-phenylethyl]oxy}-5-oxo-5,6,7,8-tetrahydro-1-naphthalenyl)methyl]sulfanyl}benzamide] |
| 0.2 | O=C(NC1CC1)c1ccc(SCc2c(O[C@H](Cn3ccnc3)c3ccccc3)ccc3c2CCCC3=O)cc1 [Compound 226, N-Cyclopropyl-4-{[(2-{[(1S)-2-(1H-imidazol-1-yl)-1-phenylethyl]oxy}-5-oxo-5,6,7,8-tetrahydro-1-naphthalenyl)methyl]sulfanyl}benzamide] |
| 6 | CC(C)S(=O)(=O)Cc1c(O[C@H](Cn2ccnc2)c2ccccc2)ccc2c1CCCC2=O [Compound 7] |
| 19 | O=C1CCCc2c1ccc(O[C@H](Cn1ccnc1)c1ccccc1)c2CNc1ccc(F)cc1 [Compound 151, 5-[(4-Fluoro-phenylamino)-methyl]-6-((S)-2-imidazol-1-yl-1-phenyl-ethoxy)-3,4-dihydro-2H-napthalen-1-one] |
| 5 | O=C1CCCc2c1ccc(O[C@H](Cn1ccnc1)c1ccccc1)c2COc1cccc(F)c1 [Compound 102] |
| 0.2 | CC[C@H](CO)NC(=O)c1cccc(S(=O)(=O)Cc2c(O[C@H](Cn3ccnc3)c3ccccc3)ccc3c2CCCC3=O)c1 [Compound 242, N-[(1R)-1-(Hydroxymethyl)propyl]-3-{[(2-{[(1S)-2-(1H-imidazol-1-yl)-1-phenylethyl]oxy}-5-oxo-5,6,7,8-tetrahydro-1-naphthalenyl)methyl]sulfonyl}benzamide] |
| 0.2 | O=C(NC1CCCC1)c1ccccc1SCc1c(O[C@H](Cn2ccnc2)c2ccccc2)ccc2c1CCCC2=O [Compound 222, N-Cyclopentyl-2-{[(2-{[(1S)-2-(1H-imidazol-1-yl)-1-phenylethyl]oxy}-5-oxo-5,6,7,8-tetrahydro-1-naphthalenyl)methyl]sulfanyl}benzamide] |
| 0.2 | O=C(NC1CCCC1)c1cccc(S(=O)(=O)Cc2c(O[C@H](Cn3ccnc3)c3ccccc3)ccc3c2CCCC3=O)c1 [Compound 218, N-Cyclopentyl-3-{[(2-{[(1S)-2-(1H-imidazol-1-yl)-1-phenylethyl]oxy}-5-oxo-5,6,7,8-tetrahydro-1-naphthalenyl)methyl]sulfonyl}benzamide] |
| 10 | CN(C)CCNC(=O)c1cccc(S(=O)(=O)Cc2c(O[C@H](Cn3ccnc3)c3ccccc3)ccc3c2CCCC3=O)c1 [Compound 182, N-[2-(Dimethylamino)ethyl]-3-{[(2-{[(1S)-2-(1H-imidazol-1-yl)-1-phenylethyl]oxy}-5-oxo-5,6,7,8-tetrahydro-1-naphthalenyl)methyl]sulfonyl}benzamide] |
| 30.5 | O=C1CCCc2c1ccc(O[C@H](Cn1ccnc1)c1ccccc1)c2CSc1cccc2ccccc12 [Compound 10a, 6-((S)-2-Imidazol-1-yl-1-phenyl-ethoxy)-5-(naphthalen-1-ylsulfanylmethyl)-3,4-dihydro-2H-naphthalen-1-one] |
| 13 | COC(=O)c1ccc(CCc2c(O[C@H](Cn3ccnc3)c3ccccc3)ccc3c2CCCC3=O)cc1 [Compound 28, Methyl 4-{2-[2-((1S)-2-imidazolyl-1-phenylethoxy)-5-oxo-6,7,8-trihydronaphthyl]ethyl}benzoate] |

| Structure (SMILES) | IC50 [nM] |
| --- | --- |
| O=C1CCCc2c1ccc(O[C@H](Cn1ccnc1)c1ccccc1)c2CS(=O)(=O)c1ccccn1 [Compound 10, 6-(1S)-2-Imidazolyl-1-phenylethoxy)-5-[(2-pyridylsulfonyl)methyl]-2,3,4-trihydronaphthalen-1-one hydrochloride] | 0.3 |
